We go through five compounds from DBAASP.

Values after ≈ are worked out from the molar mass of the structure shown.

Common to all, as to experiment: ≥ marks a high value that may be exact or a test limit, other limits are often not marked, values filed in µg/mL are converted to µM
In test [1] the test system is Enterobacter cloacae.
The test system of test [2] is Escherichia coli ATCC 25922.
Test [3] concerns Escherichia coli ML-35p.
Test [4] concerns Escherichia coli.
Test [5] has as its system Klebsiella aerogenes.
For test [6], the system named is Pseudomonas aeruginosa ATCC 27853.
For test [7], the system named is Pseudomonas aeruginosa PAO1.
Test [8] concerns Pseudomonas aeruginosa.
The test system of test [9] is Staphylococcus aureus ATCC 25923.
For test [10], the system named is Staphylococcus aureus.
Test [11] concerns Candida albicans CPCC 400416.
Test [12] relates to Escherichia coli CPCC 100521.
Test [13] relates to Staphylococcus aureus CPCC 100520.
Test [14] has as its system Acinetobacter baumannii CCARM 12035.
In test [15] the test system is Acinetobacter baumannii CCARM 12036.
In test [16] the test system is Acinetobacter baumannii KCTC 2508.
Test [17] deals with Bacillus subtilis KCTC 3028.
Test [18] concerns Escherichia coli CCARM 1229.
In test [19] the test system is Escherichia coli CCARM 1238.
Test [20] has as its system Escherichia coli KCTC 1682.
Test [21] has as its system Pseudomonas aeruginosa CCARM 2002.
The test system of test [22] is Pseudomonas aeruginosa CCARM 2095.
For test [23], the system named is Pseudomonas aeruginosa KCTC 1637.
Test [24] has as its system Salmonella typhimurium CCARM 8003.
Test [25] relates to Salmonella typhimurium CCARM 8007.
The subject of test [26] is Salmonella typhimurium KCTC 1926.
Test [27] relates to Staphylococcus aureus CCARM 3089.
The test system of test [28] is Staphylococcus aureus CCARM 3108.
Test [29] relates to Staphylococcus aureus CCARM 3126.
Test [30] concerns Staphylococcus aureus KCTC 1621.
For test [31], the system named is Staphylococcus epidermidis KCTC 1917.
Test [32] relates to Staphylococcus aureus ATCC 33592.
Test [33] relates to Staphylococcus aureus NCTC 8530.
The test system of test [34] is Aeromonas hydrophila CGMCC 1.0927.
Test [35] concerns Aeromonas sobria.
In test [36] the test system is Bacillus subtilis CGMCC 1.108.
Test [37] deals with Candida albicans CGMCC 2.2411.
Test [38] relates to Corynebacterium glutamicum CGMCC 1.1886.
Test [39] concerns Edwardsiella tarda.
Test [40] relates to Escherichia coli MC1061.
The subject of test [41] is Micrococcus luteus CGMCC 1.0634.
The subject of test [42] is Micrococcus luteus CGMCC 1.634.
Test [43] concerns Pseudomonas fluorescens CGMCC 1.0032.
Test [44] concerns Shigella flexneri CGMCC 1.1868.
Test [45] has as its system Staphylococcus aureus CGMCC 1.363.
Test [46] has as its system Staphylococcus epidermidis CGMCC 1.2429.
The subject of test [47] is Vibrio alginolyticus CGMCC 1.1833.
Test [48] has as its system Vibrio fluvialis CGMCC 1.1609.
The test system of test [49] is Vibrio harveyi CGMCC 1.1593.
The test system of test [50] is Vibrio parahaemolyticus CGMCC 1.1615.

As usually defined, the MIC is the lowest concentration found to suppress growth. A high value points to weaker potency.

Regarding `CC[C@H](C)[C@H](NC(=O)[C@@H](NC(=O)[C@H](CCCN=C(N)N)NC(=O)[C@@H]1CCCN1C(=O)[C@H](CCCCN)NC(=O)[C@H](CCCCN)NC(=O)[C@H](Cc1ccccc1)NC(=O)[C@H](Cc1ccccc1)NC(=O)[C@H](CCCCN)NC(=O)[C@H](CCCCN)NC(=O)[C@H](C)N)C(C)C)C(=O)NCC(=O)N[C@H](C(=O)N[C@@H](CO)C(=O)N[C@H](C(=O)N1CCC[C@H]1C(=O)N[C@@H](Cc1ccccc1)C(=O)O)[C@@H](C)CC)C(C)C` [AKKFFKKPRVIGVSIPF], the MIC was found to be 10.7 µM (≈ 21 µg/mL) in test [1]; 1.53 µM (≈ 3 µg/mL) in [2]; 2.55 µM (≈ 5 µg/mL) in [3]; 2.04 µM (≈ 4 µg/mL) in [4]; 13.8 µM (≈ 27 µg/mL) in test [5]; 3.57 µM (≈ 7 µg/mL) in [6]. Besides, the MIC in test [7] amounted to 6.62 µM (≈ 13 µg/mL); in [8] it was 6.62 µM (≈ 13 µg/mL); in test [9], 21.4 µM (≈ 42 µg/mL); in [10] it was 5.1 µM (≈ 10 µg/mL).

Regarding `CC[C@H](C)[C@H](NC(=O)CN)C(=O)NCC(=O)NCC(=O)N[C@@H](C)C(=O)N[C@@H](CC(C)C)C(=O)N[C@@H](CC(C)C)C(=O)N[C@@H](CO)C(=O)N[C@@H](C)C(=O)NCC(=O)N[C@@H](CCCCN)C(=O)N[C@@H](CO)C(=O)N[C@@H](C)C(=O)N[C@@H](CC(C)C)C(=O)N[C@@H](CCCCN)C(=O)NCC(=O)N[C@@H](CC(C)C)C(=O)N[C@@H](C)C(=O)N[C@@H](CCCCN)C(=O)NCC(=O)N[C@@H](CC(C)C)C(=O)N[C@@H](C)C(=O)N[C@@H](CCC(=O)O)C(=O)N[C@@H](Cc1cnc[nH]1)C(=O)N[C@@H](Cc1ccccc1)C(=O)N[C@@H](C)C(=O)N[C@@H](CC(N)=O)C(N)=O` [GIGGALLSAGKSALKGLAKGLAEHFAN], the figures for the MIC in test [11], in [12] and in test [13] were 12.5 µM (≈ 31.9 µg/mL), 6.3 µM (≈ 16.1 µg/mL) and 6.3 µM (≈ 16.1 µg/mL), respectively.

In the case of `CC[C@H](C)[C@H](NC(=O)[C@H](C)NC(=O)[C@H](CCCCN)NC(=O)[C@H](Cc1cnc[nH]1)NC(=O)[C@@H](NC(=O)[C@@H]1CCCN1C(=O)[C@H](CCC(N)=O)NC(=O)[C@H](Cc1ccccc1)NC(=O)[C@@H](NC(=O)[C@H](CCCCN)NC(=O)[C@H](CCCCN)NC(=O)[C@H](CC(C)C)NC(=O)[C@H](C)NC(=O)[C@H](CC(N)=O)NC(=O)[C@H](CC(C)C)NC(=O)CN)C(C)C)[C@@H](C)CC)C(=O)N[C@@H](CCCCN)C(=O)N[C@@H](CCCCN)C(=O)N[C@H](C(=O)N[C@@H](CC(N)=O)C(=O)N[C@@H](CC(N)=O)C(=O)N[C@@H](Cc1cnc[nH]1)C(=O)N[C@H](C(=O)N[C@@H](CCC(N)=O)C(=O)O)C(C)C)[C@@H](C)CC` [GLNALKKVFQPIHKAIKKINNHVQ], the MIC in test [14] was 16 µM (≈ 43.8 µg/mL); in test [15], 8 µM (≈ 21.9 µg/mL); in test [16], 8 µM (≈ 21.9 µg/mL); in [17], ≥ 32 µM; in test [18], 8 µM (≈ 21.9 µg/mL); in test [19] it was 8 µM (≈ 21.9 µg/mL). The MIC stood at 4 µM (≈ 11 µg/mL) in test [20]; 16 µM (≈ 43.8 µg/mL) in test [21]; 16 µM (≈ 43.8 µg/mL) in test [22]; 8 µM (≈ 21.9 µg/mL) in test [23]; 16 µM (≈ 43.8 µg/mL) in [24]; 16 µM (≈ 43.8 µg/mL) in test [25]. The MIC in test [26] was 8 µM (≈ 21.9 µg/mL); in [27], ≥ 32 µM; in test [28], ≥ 32 µM; in test [29], ≥ 64 µM; in test [30], ≥ 32 µM; in [31], ≥ 64 µM.

Take `CC[C@H](C)[C@H](NC(=O)[C@H](CCCCN)NC(=O)[C@H](CCCN=C(N)N)NC(=O)[C@@H](N)CCCCN)C(=O)N[C@@H](Cc1ccccc1)C(=O)N[C@@H](CC(C)C)C(=O)N[C@@H](CCCN=C(N)N)C(=O)N[C@H](C(=O)N[C@@H](CCCCN)C(=O)N[C@H](C(=O)N[C@@H](CC(C)C)C(=O)N[C@H](C(=O)O)C(C)C)[C@@H](C)CC)[C@@H](C)O` [KRKIFLRTKILV]: the MIC in test [32] and in [33] was 3 µM (≈ 4.54 µg/mL) each time.

For the compound `CC[C@H](C)[C@H](NC(=O)[C@H](CCCN=C(N)N)NC(=O)CNC(=O)[C@@H](N)C(C)C)C(=O)N[C@@H](Cc1cnc[nH]1)C(=O)N[C@@H](CCCN=C(N)N)C(=O)N[C@@H](Cc1cnc[nH]1)C(=O)N[C@@H](CC(C)C)C(=O)N[C@@H](CCCCN)C(=O)O` [VGRIHRHLK], the MIC in test [34] is ≥ 48 µM; in [35] it was ≥ 48 µM; in [36] it was ≥ 48 µM; in test [37] it was ≥ 48 µM; in test [38] it was 17 µM (≈ 18.9 µg/mL); in test [39] it was ≥ 48 µM. In addition, the MIC in test [40] is ≥ 48 µM; in [41], ≥ 48 µM; in test [42] it was 8.49 µM (≈ 9.46 µg/mL); in test [43] it was 8.49 µM (≈ 9.46 µg/mL); in test [44] it was ≥ 48 µM; in test [45], 17 µM (≈ 18.9 µg/mL). In addition, the MIC in test [46], in test [47], in [48], in [49] and in test [50] was ≥ 48 µM in each case.
